Test results published in patent publication US20180352841A1, “COMPOSITION HAVING RICH-TASTE IMPARTING FUNCTION” (AJINOMOTO CO., INC., priority 2016, published 2018).

What was measured:
[1] = Organoleptic evaluation of coffee-like thickness in milk coffee with 0.2 ppm γ-Glu-Val-Gly (Example 1); conditions: for Coffee-like thickness (initial taste) / Coffee-like thickness (middle to aftertaste): milk coffee + 0.2 ppm γ-Glu-Val-Gly (control sample = score 0); for Coffee-like thickness (initial taste): 0 to 1 second after drinking, score 0 to 3 (0 no effect, 1 weakly effective, 2 effective, 3 strongly effective), 2 to 4 panelists, ingredient ppm: succinic acid 5, proline 12.5, KH2PO4 3, K2HPO4 12.5, L-tartaric acid 6, adipic acid 25, citric acid 3.5, CaCl2 50, MgCl2 12.5, DL-malic acid 3, trisodium citrate 0.8, sodium fumarate 1.5; for Coffee-like thickness (middle to aftertaste): 1 to 5 seconds after drinking, score 0 to 3, ingredient ppm as in Table 1 c0 (succinic acid 5, proline 12.5, KH2PO4 3, K2HPO4 12.5, L-tartaric acid 6, adipic acid 25, citric acid 3.5, CaCl2 50, MgCl2 12.5, DL-malic acid 3, trisodium citrate 0.8, sodium fumarate 1.5); for Thickness-enhancing effect for the initial taste: milk coffee + 0.2 ppm γ-Glu-Val-Gly, summary of Table 1
Description: As an evaluation system, milk coffee (“Birdy Robusta”, Ajinomoto Co., (Thailand) Ltd.) was used. To this milk coffee, 0.2 ppm of γ-Glu-Val-Gly was added, to prepare a control sample.
Organoleptic evaluation was performed by 2 to 4 persons of special panelists for strength of “coffee-like thickness” of each sample, to determine thickness-enhancing effects (thickness-boosting effect) of the ingredients to be evaluated.

[2] = Organoleptic evaluation of salty taste-like thickness in potage soup with 2 ppm γ-Glu-Val-Gly (Example 2); conditions: for Salty taste-like thickness (initial taste) / Salty taste-like thickness (middle to aftertaste): potage soup + 2 ppm γ-Glu-Val-Gly (control = score 0), score 0 to 3, L-tartaric acid 6 ppm, adipic acid 25 ppm, citric acid 2 ppm; for Salty taste-like thickness (initial taste): 0 to 1 second; for Salty taste-like thickness (middle to aftertaste): 1 to 5 seconds
[3] = Organoleptic evaluation of coffee-like thickness in milk coffee with 0.6 ppm γ-Glu-Abu-Gly (Example 3); conditions: for thickness-enhancing effect for initial taste: milk coffee + 0.6 ppm γ-Glu-Abu-Gly, summary of Table 3; for Coffee-like thickness (initial taste) / Coffee-like thickness (middle to aftertaste): milk coffee + γ-Glu-Abu-Gly 0.6 ppm (control = score 0), score 0 to 3, L-tartaric acid 6 ppm, adipic acid 25 ppm, citric acid 3.5 ppm; for Coffee-like thickness (initial taste): 0 to 1 second; for Coffee-like thickness (middle to aftertaste): 1 to 5 seconds
Description: (§1) Organoleptic evaluation was performed by 2 to 4 persons of special panelists for strength of “coffee-like thickness” of each sample, to determine thickness-enhancing effects (thickness-boosting effect) of the ingredients to be evaluated. The organoleptic evaluation was performed by a four grade scoring method for initial taste, middle taste, and aftertaste (sensed in the periods of 0 to 1 second, 1 to 3 seconds, and 3 to 5 seconds after drinking, respectively, which periods are defined for a liquid) with scores of 0 to 3, wherein score 0 means no effect (i.e. strength of the thickness is the same as that of the control sample), score 1 means weakly effective, score 2 means effective, and score 3 means strongly effective.
(§2) As an evaluation system, milk coffee (“Birdy Robusta”, Ajinomoto Co., (Thailand) Ltd.) was used.
(§3) Organoleptic evaluation was performed for strength of “coffee-like thickness” of each sample by 2 persons of special panelists with the same criteria as those of Example 1 wherein score 0 was defined to mean the strength of thickness of each control sample, to determine thickness-enhancing effects (thickness-boosting effects) of the ingredients to be evaluated.

[4] = Organoleptic evaluation of thickness in cookie with 5 ppm γ-Glu-Val-Gly (Example 4); conditions: for Thickness-enhancing effect for the initial taste: cookie with 5 ppm γ-Glu-Val-Gly, text summary of Table 4; for Thickness (initial taste) / Thickness (middle to aftertaste): cookie, γ-Glu-Val-Gly 5 ppm in dough (control = score 0), score 0 to 3, L-tartaric acid 5 ppm, sodium L-tartrate 2 ppm, adipic acid 20 ppm, citric acid 1 ppm; for Thickness (initial taste): 0 to 4 seconds after eating; for Thickness (middle to aftertaste): 4 to 15 seconds after eating
Description: Organoleptic evaluation was performed by 2 persons of special panelists for strength of “thickness” of each sample, to determine thickness-enhancing effects (thickness-boosting effect) of the ingredients to be evaluated. The organoleptic evaluation was performed by a four grade scoring method for initial taste, middle taste, and aftertaste (sensed in the periods of 0 to 4 second, 4 to 10 seconds, and 10 to 15 seconds after eating, respectively, which periods are defied for a solid) with scores of 0 to 3, wherein score 0 means no effect (i.e. strength of the thickness is the same as that of the control sample, score 1 means weakly effective, score 2 means effective, and score 3 means strongly effective.

[5] = Organoleptic evaluation of coffee-like thickness in milk coffee with 0.8 ppm γ-Glu-Abu (Example 3); conditions: for thickness-enhancing effect for initial taste: milk coffee + 0.8 ppm γ-Glu-Abu, summary of Table 3; for Coffee-like thickness (initial taste) / Coffee-like thickness (middle to aftertaste): milk coffee + γ-Glu-Abu 0.8 ppm (control = score 0), score 0 to 3, L-tartaric acid 6 ppm, adipic acid 25 ppm, citric acid 3.5 ppm; for Coffee-like thickness (initial taste): 0 to 1 second; for Coffee-like thickness (middle to aftertaste): 1 to 5 seconds
Description: as §1, §2, §3

[6] = Organoleptic evaluation of thickness in carbonated lemon drink with 15 ppm γ-Glu-Val-Gly (Example 2); conditions: for Thickness (initial taste) / Thickness (middle to aftertaste): carbonated lemon drink + 15 ppm γ-Glu-Val-Gly (control = score 0), score 0 to 3, L-tartaric acid 24 ppm, adipic acid 50 ppm, citric acid 3.5 ppm; for Thickness (initial taste): 0 to 1 second; for Thickness (middle to aftertaste): 1 to 5 seconds
[7] = potage soup + 2 ppm γ-Glu-Val-Gly, Table 2
[8] = carbonated lemon drink + 15 ppm γ-Glu-Val-Gly, Table 2

In the case of `O=C(O)CC(O)C(=O)O` (racemic) [DL-Malic acid], the “Coffee-like thickness (initial taste)” value [1] was 0 and the “Coffee-like thickness (middle to aftertaste)” value [1] was 0.
In the case of `O=C(O)CCCCC(=O)O` [Adipic acid], the “Salty taste-like thickness (initial taste)” value [2] was 1.3, the “Salty taste-like thickness (middle to aftertaste)” value [2] was 0 and the “thickness-enhancing effect for initial taste” value [2, 7] was “observed”. The “thickness-enhancing effect for initial taste” value [3] was “observed”, the “Coffee-like thickness (initial taste)” value [3] was 1.0 and the “Coffee-like thickness (middle to aftertaste)” value [3] was 1.0. For the same compound, the “Thickness-enhancing effect for the initial taste” value [4] was “observed”, the “Thickness (initial taste)” value [4] was 1.2 and the “Thickness (middle to aftertaste)” value [4] was 1.0. The “thickness-enhancing effect for initial taste” value [5] was “observed”, the “Coffee-like thickness (initial taste)” value [5] was 1.0 and the “Coffee-like thickness (middle to aftertaste)” value [5] was 0.5. For the same compound, the “Coffee-like thickness (initial taste)” value [1] was 1.0, the “Coffee-like thickness (middle to aftertaste)” value [1] was 0 and the “Thickness-enhancing effect for the initial taste” value [1] was “observed”. The “Thickness (initial taste)” value [6] was 1.5, the “Thickness (middle to aftertaste)” value [6] was 0 and the “thickness-enhancing effect for initial taste” value [6, 8] was “observed”.
For `[Ca+2].[Cl-].[Cl-]` [Calcium chloride], the “Coffee-like thickness (initial taste)” value [1] was 0 and the “Coffee-like thickness (middle to aftertaste)” value [1] was 0.
For `O=C(O)CC(O)(CC(=O)O)C(=O)O` [Citric acid, reference compound], the “Salty taste-like thickness (initial taste)” value [2] was 0, the “Salty taste-like thickness (middle to aftertaste)” value [2] was 0 and the thickness-enhancing effect [2, 7] was “not observed”. The “Coffee-like thickness (initial taste)” value [3] was 0, the “Coffee-like thickness (middle to aftertaste)” value [3] was 0 and the “Thickness (initial taste)” value [4] was 0. For the same compound, the “Thickness (middle to aftertaste)” value [4] was 0, the “Coffee-like thickness (initial taste)” value [5] was 0 and the “Coffee-like thickness (middle to aftertaste)” value [5] was 0. The “Coffee-like thickness (initial taste)” value [1] was 0, the “Coffee-like thickness (middle to aftertaste)” value [1] was 0 and the “Thickness (initial taste)” value [6] was 0. The “Thickness (middle to aftertaste)” value [6] was 0 and the thickness-enhancing effect [6, 8] was “not observed”.
In the case of `O=P([O-])([O-])O.[K+].[K+]` [Dipotassium hydrogenphosphate], the “Coffee-like thickness (initial taste)” value [1] was 0 and the “Coffee-like thickness (middle to aftertaste)” value [1] was 1.0.
In the case of `O=C(O)[C@H](O)[C@@H](O)C(=O)O` [L-Tartaric acid], the “Salty taste-like thickness (initial taste)” value [2] was 1.3, the “Salty taste-like thickness (middle to aftertaste)” value [2] was 0 and the “thickness-enhancing effect for initial taste” value [2, 7] was “observed”. The “thickness-enhancing effect for initial taste” value [3] was “observed”, the “Coffee-like thickness (initial taste)” value [3] was 1.5 and the “Coffee-like thickness (middle to aftertaste)” value [3] was 0. For the same compound, the “Thickness-enhancing effect for the initial taste” value [4] was “observed”, the “Thickness (initial taste)” value [4] was 1.5 and the “Thickness (middle to aftertaste)” value [4] was 1.0. For the same compound, the “thickness-enhancing effect for initial taste” value [5] was “observed”, the “Coffee-like thickness (initial taste)” value [5] was 1.5 and the “Coffee-like thickness (middle to aftertaste)” value [5] was 0. For the same compound, the “Coffee-like thickness (initial taste)” value [1] was 1.5, the “Coffee-like thickness (middle to aftertaste)” value [1] was 0 and the “Thickness-enhancing effect for the initial taste” value [1] was “observed”. The “Thickness (initial taste)” value [6] was 1.0, the “Thickness (middle to aftertaste)” value [6] was 0 and the “thickness-enhancing effect for initial taste” value [6, 8] was “observed”.
With `[Cl-].[Cl-].[Mg+2]` [Magnesium chloride] the “Coffee-like thickness (initial taste)” value [1] was 0 and the “Coffee-like thickness (middle to aftertaste)” value [1] was 0.
For `O=P([O-])(O)O.[K+]` [Potassium dihydrogenphosphate], the “Coffee-like thickness (initial taste)” value [1] was 0 and the “Coffee-like thickness (middle to aftertaste)” value [1] was 0.5.
With `O=C(O)[C@@H]1CCCN1` [Proline] the “Coffee-like thickness (initial taste)” value [1] was 0 and the “Coffee-like thickness (middle to aftertaste)” value [1] was 1.5.
For `O=C([O-])[C@H](O)[C@@H](O)C(=O)[O-].[Na+].[Na+]` [Sodium L-tartrate], the “Thickness (initial taste)” value [4] was 0.7 and the “Thickness (middle to aftertaste)” value [4] was 0.5.
With `O=C([O-])/C=C/C(=O)[O-].[Na+].[Na+]` [Sodium fumarate] the “Coffee-like thickness (initial taste)” value [1] was 0 and the “Coffee-like thickness (middle to aftertaste)” value [1] was 0.
In the case of `O=C(O)CCC(=O)O` [Succinic acid], the “Coffee-like thickness (initial taste)” value [1] was 0 and the “Coffee-like thickness (middle to aftertaste)” value [1] was 2.5.
For `O=C([O-])CC(O)(CC(=O)[O-])C(=O)[O-].[Na+].[Na+].[Na+]` [Trisodium citrate], the “Coffee-like thickness (initial taste)” value [1] was 0 and the “Coffee-like thickness (middle to aftertaste)” value [1] was 0.
